Test results as given in patent publication US20200129523A1, “SHIP INHIBITION TO INDUCE EXPRESSION OF GRANULOCYTE COLONY STIMULATING FACTOR IN A SUBJECT” (THE RESEARCH FOUNDATION FOR THE STATE UNIVERSITY OF NEW YORK, priority 2014, published 2020).

How the values were obtained:
[1] = system: HSC compartment; assay: Flow cytometric quantitation of hematopoietic stem/progenitor populations and cellularity in bone marrow of treated mice; assay type: in vivo, C57BL/6NTac mice
Experimental: HSC phenotype, cell-cycle progression, G-CSF neutralization, and CXCR4 MFI determination by FACS analysis was performed on whole bone marrow (WBM) cells harvested from a tibia and femur pair obtained from SHIPi and vehicle treated 8-12 week old male C57BL/6NTac mice (Taconic). Generation of the CD45.1×CD45.2 strain utilized in the CRU assay were obtained by intercrossing C57BL6/J (CD45.2) and B6.SJL (CD45.1), as previously described.^5 The SUNY Upstate Medical University Committee for Humane Use of Animals approved all animal experiments.
In vivo administration of 3AC was previously described.^14 Briefly, 3AC is resuspended as an emulsion in 0.3% Klucel/H20. Mice were treated via intraperitoneal injection every 24 hrs for 5 days at a final concentration of 26.5 mg/kg. Analysis and transplants were performed on day 6. The 3AC derivative K118 (Soluble SHIPi) was suspended in pure H2O and heated at 100° C. for ˜15 min to allow the compound to enter solution. The delivery method was the same as with 3AC, however, the mice were treated for 5 days at a final concentration of 10 mg/kg. Vehicle cohorts for 3AC were treated with 0.3% Klucel/H20 and K118 were treated with pure H2O.
Cell isolation was performed according to method detailed in Hazen et al.^6 Briefly, WBM was flushed from both femurs and tibias per mouse with a 25-gauge needle, red blood cell lysed (eBioscience), and resuspended in staining media comprised of Hanks Buffered Saline Solution (HBSS), 2% heat inactivated fetal bovine serum (FBS), and 10 mM HEPES (Sigma). The cells harvested for the CRU assay were flushed, red blood cell lysed, washed, and resuspended in sterile phosphate buffered saline (PBS). Peripheral blood mononuclear cells (PBMC) were collected via submandibular bleed in EDTA Micorvette tubes (SARSTEDT).
All antibodies were from BD Biosciences or eBioscience. All WBM, PBMC and BM derived MSC cell populations were Fc blocked on ice for 10 min prior to antibody staining. Global reconstitution was determined by staining PBMC with CD45.1-PeCy7 and CD45.2-APC. Multi-lineage repopulation was determined by staining PBMC with CD3-FITC (145-2C11), CD19-PerCP5.5 (1D3), Mac1-PE (M1/70), Gr1-Alexa700 (RB6-8C5) and NK1.1-APC-Cy7 (PK136). The Lin−cKit+Sca1+CD34−Flk2− (LSKF34−) phenotype was utilized to determine frequency of LT-HSC, ST-HSC, and MPP; the stain was comprised of Lin-PerCP 5.5, cKit-APC (2B8), Sca1-PeCy7 (D7), CD34-FITC (RAM34), Flk2-PE (A2F10). LSKF-CXCR4 stain was used to determine surface expression of the homing marker CXCR4. All cells were washed twice with staining media, resuspended in staining media plus DAPI for dead cell exclusion, and then analyzed on a flow cytometer LSRII (BD Biosciences). All flow cytometry data was analyzed using FlowJo (9.4.3) software.

[2] = system: LT-HSC; assay: Cell cycle analysis of BM LT-HSC (Hoechst / Pyronin Y); assay type: in vivo, C57BL/6NTac mice; settings: 3AC 26.5 mg/kg i.p. 5 days, vs vehicle
Experimental: WBM cells were stained with LSKCD34 and fixed in BD Cytofix/Cytoperm buffer for 30 minutes on ice. Fixed cells were stained with 10 μM Hoechst 33342 (HO; Sigma-Aldrich) for 45 min at 37° C. The cells were then incubated with 5 μM Pyronin Y (PY; Sigma-Aldrich) in HBSS medium with 2% FBS in the presence of 50 μM verapamil (Sigma-Aldrich) for 30 minutes at 37° C., washed, and immediately analyzed by UV laser-equipped BD LSRII analyzer.

[3] = system: HSC; assay: CRU assay (competitive repopulating units), primary and secondary; assay type: in vivo, mice
Experimental: CD45.1^+45.2^+-recipient mice were given a split dose of 550 Rads (x-ray source, RS2000-RAD source technologies, inc.) 4 hours apart for a lethal total dose of 1100 Rads. WBM (5×10^5) cells from 3AC (CD45.2) treated mice were competed with WBM cells from vehicle (CD45.1) treated mice and injected retro-orbitally into CD45.1^+45.2^+ hosts. PBMC multi-lineage reconstitution was evaluated every month post-transplant for 4 months. Transplanted mice were euthanized and serially transplanted to determine self-renewal capacity. Repopulating Units (RU) determination was previously decribed.^15 Briefly, RU=(C×CD45.2 repopulation %)/(100−CD45.2 repopulation %) where C=10^5 competitor cells.^6
Normal Repopulating units (RU) are calculated based on total number of competitor cells transplanted. Due to the expansion in the bone marrow compartment of SHIPi treated mice, we calculated the absolute RU numbers based on RU output determined by CRU assay and total BM cellularity. Total BM cellularity was determined via hemacytometer (BioRAD, TC20 cell counter) based on a total BM cells obtained from an intact set of femurs and tibias for each mouse in the study. Absolute RU=(Total BM cellularity/5×10^5)×RU.

[4] = system: PDGFRα+CD51+ MSC; assay: In vivo MSC immunophenotyping by flow cytometry; set-up: species or system mice; settings: 3AC 26.5 mg/kg i.p. 5 days, vs vehicle
Experimental: PDGFRα^+CD51^+ MSC were detected using methods and reagents as described by Iyer et al.^8 Femurs, tibias, humeri, ulnas, radii, and pelvis were dissected; the bone fragments were cleaned, cut into tiny pieces, and then crushed using a mortar and pestle. The bone chips were then washed several times in HBSS supplemented with 2% heat-inactivated FBS (HBSS/2% HI-FBS) and HBSS only, and then spun at 350×g for 5 mins. The pellet was re-suspended in 3 mg/mL type I collagenase (Worthington) and 15 μg/mL DNAase (Sigma, St. Louis, Mo.) dissolved in HBSS and incubated at 37° C. for 30 min at 110 rpm, this step was repeated twice. Following incubation, mononuclear cells were obtained using a Ficoll gradient ([…] and Histopaque-1077; Sigma, St. Louis, Mo.), and were then used for further analysis. Cells were stained with antibodies as described in Iyer et al.^8

[5] = system: G-CSF; assay: G-CSF ELISA of serum of treated mice; assay type: in vivo; settings: 3AC 26.5 mg/kg i.p. 5 days, vs vehicle
Experimental: Peripheral blood was collected in serum separation microvette tubes (SARSTEDT). Tubes were kept at room temperature for 2 hrs. and then spun at 2000×g for 20 min as per manufacturers recommendation. Serum levels of G-CSF in treated mice were determined using a Mouse G-CSF Quantikine Elisa kit (R&D systems).

[6] = system: radiation-induced myeloablation; assay: Lymphocyte and WBC recovery in radiation induced bone marrow failure model; assay type: in vivo, C57BL/6J mice; settings: 550 Rads sub-lethal irradiation, 3AC daily 7 days i.p., vs vehicle
Experimental: We utilized a radiation-induced hematological myeblation to create our bone marrow failure model. C57BL/6J mice (8-12 week) (The Jackson Laboratory, Bar Harbor, Me.) were sub-lethally irradiated at 550 Rads. 3AC and vehicle were administered daily for 7 days post irradiation via IP injection. PB was collected by submandibular bleeding on days 8, 15, 22 and 32 and analyzed for WBC and lymphocyte counts [Thousands per microliter (K/uL)] on a Hemavet 950S (Drew Scientific, Waterbury, Conn., USA) analysis.

[7] = cited from earlier work
[8] = system: radiation-induced myeloablation; settings: post radiation-induced myeloablation; cited from earlier work
[9] = transient SHIPi treatment; cited from earlier work
[10] = 3AC 26.5 mg/kg i.p. 5 days, BM, vs vehicle
[11] = 3AC 26.5 mg/kg i.p. 5 days, vs vehicle

CC(C)CCC[C@@H](C)[C@@H]1CC[C@H]2[C@@H]3CCC4C[C@H](N)CC[C@]4(C)[C@H]3CC[C@@]21C (stereo partly drawn) [3AC]
absolute number of LSK cells [1, 10]: significantly increases | frequency of LSK cells [1, 10]: significantly increases | CXCR4 surface expression on expanded HSC pool ([1]; 3AC 26.5 mg/kg i.p. 5 days, MFI by FACS): does not cause a reduction | frequency of LT-HSC (LSKFlk2-CD34-) in BM [1, 11]: increases the frequency | frequency of MPP (LSKFlk2+CD34+) in BM [1, 11]: increases the frequency | frequency of ST-HSC (LSKFlk2-CD34+) in BM [1, 11]: increases the frequency | expansion in BM of cells with a primitive HSC phenotype ([1]; 3AC 26.5 mg/kg i.p. 5 days, frequency combined with BM cellularity): 3-4 fold | bone marrow cellularity (BMC) ([1]; 3AC 26.5 mg/kg i.p. every 24 hrs for 5 days, analysis day 6, vs vehicle): significant increase | frequency of LT-HSC in S and G2 phases of the cell cycle [2]: significantly greater frequency | CRU frequency ([3]; BM of 3AC vs vehicle donors): increases | increase in cells with HSC capacity (absolute CRU numbers) ([3]; after accounting for total BM cellularity, vs vehicle): ~6 fold | global blood cell reconstitution by BM cells of treated donors ([3]; primary CRU, 3AC-treated vs vehicle-treated donors, monthly for 4 months post-transplant): significantly greater | lineage reconstitution (B, T, NK, myeloid) ([3]; primary CRU, entire post-transplant period): greater proportion of all major blood cell lineages analyzed | bias or impairment in lineage output after serial transfer ([3]; secondary CRU hosts, 1 month post-transplant): did not observe a significant bias or impairment | repopulation of all major lineages in secondary hosts ([3]; secondary CRU, vs competing vehicle BM): significantly higher | Pα+51+ MSC compartment size in BM [4]: approximate doubling | G-CSF production in vivo [5]: super-induces | G-CSF production in vivo ([5]; listed as SHIPi): increases | recovery of lymphocyte numbers [6]: significantly improved recovery | recovery of white blood cell (WBC) numbers [6]: significantly improved recovery | aqueous solubility [7]: poor aqueous solubility | recovery of neutrophil numbers [8]: more rapid recovery | recovery of platelet numbers [8]: more rapid recovery | development of pulmonary and gastrointestinal inflammation [9]: does not induce
